Reference: paper PMC13099375 (Nature biomedical engineering, 2025)
“And” between values parts separate entries of the source, which are not always exact repeats. Equal entries are not always repeated. Bridges are numbered along the chain shown (N, C = ends). Where no end group is shown, it is not given here. [ ]: non-standard residue; d: D form. Lys(N3) = [N-]=[N+]=NCCCC[C@H](N)C(=O)O

Experiments:
[1] = system: primary mouse B cells (mouse CD19); experiment: FMC63 IgG binding to primary mouse B cells by flow cytometry (EDF7D)
[2] = system: FMC63^IgG binding to CD19^+ NALM6 cells; experiment: FMC63 IgG staining of NALM6 cells in the presence of mimotope (Fig 4E); set-up: species or system human
[3] = system: FMC63^scFv binding to CD19^+ NALM6 cells; experiment: FMC63 scFv staining of NALM6 cells after pre-incubation with mimotope (Fig 4E); set-up: species or system human; conditions: scFv pre-blocked with mimotope
CD19-CAR Jurkat T cells = experiment: CD69 expression on mimotope-pre-incubated CD19-CAR Jurkat T cells co-cultured with NALM6 (Fig 4F); format: cell-based, human; conditions: 1:1 E:T, 16 hours
FMC63^scFv [4] = experiment: Retention of prebound biotin-FMC63 scFv on yeast clones under competition with FMC63 IgG (Fig 3I); format: binding; conditions: pre-stained with 50nM Biotin-FMC63^scFv, then 1μM FMC63^IgG
FMC63^IgG [5] = experiment: ELISA of FMC63 IgG binding to plate-bound synthetic mimotopes (Fig 2F, 3F); conditions: peptide pre-treated with DTT
FMC63^IgG [6] = experiment: Flow cytometry of FMC63 IgG binding to mimotope yeast clones (Fig 2E, 3B, 3D, 3E)
Target sequence in this assay (as listed by the source): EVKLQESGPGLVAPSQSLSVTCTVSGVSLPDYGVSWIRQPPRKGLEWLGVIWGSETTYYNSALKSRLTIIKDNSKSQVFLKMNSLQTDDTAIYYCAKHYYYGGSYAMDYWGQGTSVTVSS
Target sequence in this assay (as listed by the source): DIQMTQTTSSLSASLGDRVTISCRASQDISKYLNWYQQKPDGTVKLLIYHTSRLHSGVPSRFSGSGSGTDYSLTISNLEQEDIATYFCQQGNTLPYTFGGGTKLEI

FMC63-mCAR-T cells [7] = experiment: CTV dilution of FMC63-mCAR-T cells in LNs after amph-mimotope vaccination (Fig 5D); format: in vivo, C57BL/6 mice; conditions: 10 nmol amph-peptide + 25μg CDG, 48 hours after vaccination, n=3
FMC63^scFv [8] = experiment: FMC63 scFv binding to K562 cells labeled with amph-mimotopes (Fig 3J); conditions: read-out: Kd^scFv (apparent); K562 labeled with 500 nM amph-mimotope, fluorescent FMC63^scFv, flow cytometry
Target sequence in this assay (as listed by the source): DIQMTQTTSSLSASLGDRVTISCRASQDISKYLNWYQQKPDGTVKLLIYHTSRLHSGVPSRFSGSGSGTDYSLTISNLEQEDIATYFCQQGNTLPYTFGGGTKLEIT

CD19 CAR-T cells = experiment: IFN-γ ELISA, human CD19 CAR-T co-cultured with amph-mimotope-labeled K562 cells (Fig 2H); format: cell-based; conditions: 6 hr
EGFRvIII-CAR-T cells = experiment: IFN-γ ELISA, control EGFRvIII-CAR-T co-cultured with amph-labeled K562 cells (Fig 2I); format: cell-based
FMC63-mCAR-T cells [9] = experiment: IFN-γ ELISA, FMC63-mCAR-T co-cultured with amph-mimotope-labeled K562 cells (Fig 5B); format: cell-based, mouse
[10] = Clinical data, pediatric B-ALL: CAR-T expansion by qPCR and B cell aplasia (Fig 1A-D); format: in vivo, human; conditions: for probability of continued B-cell aplasia: at 6 months
[11] = Clinical data, adult B-ALL: peak CAR-T expansion by qPCR (EDF2A); format: in vivo, human; conditions: adult relapsed/refractory ALL
[12] = Clinical data, adult B-cell lymphoma: peak CAR-T expansion by qPCR (EDF2B); format: in vivo, human; conditions: relapsed/refractory B-NHL

## FMC63 IgG: recombinant FMC63 (anti-human CD19) expressed as a full-length IgG
[1]
  binding to WT B cells expressing mouse CD19 (in words): minimal binding

## PRKHSGRICPWNCKELDNPPFIFGNR (disulfide) [F12-A1]
[2]
  mimotope concentration at which FMC63^IgG binding to CD19 is abolished: > 10 µM
[3]
  mimotope concentration at which FMC63^scFv binding to NALM6 cells is compromised / abolished: greater than 1 μM
CD19-CAR Jurkat T cells
  CD69 induction on FMC63 CAR Jurkat cells stimulated with NALM6 after pre-blocking with mimotope: not affected
FMC63^scFv [4]
  time FMC63^scFv remained bound on yeast surface in the presence of excess soluble FMC63^IgG: over 24 hours

## RHCPWNCSLL (disulfide) [P1]
FMC63^IgG [5]
  FMC63^IgG binding to DTT-treated peptide: completely ablated
FMC63^IgG [6]; flow cytometry
  binding of yeast clone at 20 nM biotinylated FMC63^IgG: no detectable binding
FMC63^IgG [6]; yeast treated with 0.1mM, 1mM DTT, 500 nM biotin-FMC63^IgG
  FMC63^IgG binding to yeast clone under mild reductive conditions: eliminated FMC63^IgG binding

## amph-F12: amphiphile (DSPE-PEG2k) conjugate of F12 ({DSPE‑PEG2k‑DBCO-azido lysine}-RICPWNCKEL; disulfide 3-7 (inferred))
FMC63-mCAR-T cells [7]
  CAR-T cell proliferation (CTV dilution) in LNs (in words): limited proliferation

## amph-P1: P1 with N-terminal azide conjugated to DSPE-PEG2k-DBCO ({DSPE‑PEG2k‑DBCO}-[Lys(N3)]RHCPWNCSLL; not fully specified; cysteine pairing not given here)
FMC63-mCAR-T cells [7]
  CAR-T cell proliferation (CTV dilution) in LNs (in words): no CAR-T cell proliferation
FMC63^scFv [8]
  Kd: > 1000 nM
CD19 CAR-T cells; CD19^− K562 labeled with 100 nM amph-P1, CD19 CAR-T 5:1 E:T, triplicate samples
  IFN-γ by ELISA: 79.6185 and 80.063 and 79.9889
CD19 CAR-T cells; K562 labeled with 100 nM amph-P1, 5:1 E:T
  IFN-γ secretion from CD19 CAR-T cells (in words): effectively triggered IFN-γ secretion from CD19 CAR-T cells but to a much lesser extent than NALM6 cells
EGFRvIII-CAR-T cells; K562 labeled with 100 nM amph-ligand, 5:1 E:T, 6 hours, IFN-γ ELISA
  stimulation of control EGFRvIII CAR-T cells (in words): failed to stimulate
EGFRvIII-CAR-T cells; replicate 1
  IFN-γ secretion, EGFRvIII-CAR-T with amph-labelled K562 (Fig 2I): 128
EGFRvIII-CAR-T cells; replicate 2
  IFN-γ secretion, EGFRvIII-CAR-T with amph-labelled K562 (Fig 2I): 153
EGFRvIII-CAR-T cells; replicate 3
  IFN-γ secretion, EGFRvIII-CAR-T with amph-labelled K562 (Fig 2I): 104

## amph-mimotopeF12 ({DSPE‑PEG2k‑DBCO}-[Lys(N3)]RICPWNCKEL; disulfide 4-8 (inferred))
FMC63-mCAR-T cells [9]; replicate 1
  IFN-γ secretion, FMC63-mCAR-T with amph-labelled K562 (Fig 5B): 739.091
FMC63-mCAR-T cells [9]; replicate 2
  IFN-γ secretion, FMC63-mCAR-T with amph-labelled K562 (Fig 5B): 671.636
FMC63-mCAR-T cells [9]; replicate 3
  IFN-γ secretion, FMC63-mCAR-T with amph-labelled K562 (Fig 5B): 771.636

## tisagenlecleucel
[10]; after infusion, both cohorts (high ≥40%, n=40; low <40%, n=90), qPCR
  median time to peak CAR-T expansion: 10 days
[10]; high tumor burden patients, 95% CI 55–95
  probability of continued B-cell aplasia: 72%
[10]; low tumor burden patients, 95% CI 57–78
  probability of continued B-cell aplasia: 67%
[11]; high tumor burden (n=23)
  peak of expansion: 77,109 CAR19 copies/μg of DNA
[11]; low tumor burden (n=6)
  peak of expansion: 25,064 CAR19 copies/μg of DNA
[12]; high disease burden (n=7)
  CAR-T19 expansion: 35,857 CAR19 copies/μg of DNA
[12]; low tumor burden (n=30)
  CAR-T19 expansion: 18,718 CAR19 copies/μg of DNA
